Data from the NIST ThermoML archive (doi:10.1016/j.jct.2005.07.011).

Assay: excess molar enthalpy (molar enthalpy of mixing); xn = mol fraction of the nth substance listed
Details: Liquid

CCCCCO [pentan-1-ol] + COC(=O)OC
Details | excess molar enthalpy [kcal/mol]
298.15 K, 1000 kPa, x2 = 0.05 | 0.133
298.15 K, 1000 kPa, x2 = 0.101 | 0.246
298.15 K, 1000 kPa, x2 = 0.151 | 0.334
298.15 K, 1000 kPa, x2 = 0.2 | 0.405
298.15 K, 1000 kPa, x2 = 0.25 | 0.459
298.15 K, 1000 kPa, x2 = 0.3 | 0.498
298.15 K, 1000 kPa, x2 = 0.35 | 0.524
298.15 K, 1000 kPa, x2 = 0.4 | 0.542
298.15 K, 1000 kPa, x2 = 0.45 | 0.552
298.15 K, 1000 kPa, x2 = 0.5 | 0.552
298.15 K, 1000 kPa, x2 = 0.55 | 0.541
298.15 K, 1000 kPa, x2 = 0.601 | 0.52
298.15 K, 1000 kPa, x2 = 0.651 | 0.493
298.15 K, 1000 kPa, x2 = 0.701 | 0.454
298.15 K, 1000 kPa, x2 = 0.75 | 0.403
298.15 K, 1000 kPa, x2 = 0.851 | 0.273
298.15 K, 1000 kPa, x2 = 0.899 | 0.196
298.15 K, 1000 kPa, x2 = 0.949 | 0.104
313.15 K, 100 kPa, x2 = 0.05 | 0.138
313.15 K, 100 kPa, x2 = 0.101 | 0.259
313.15 K, 100 kPa, x2 = 0.151 | 0.354
313.15 K, 100 kPa, x2 = 0.2 | 0.432
313.15 K, 100 kPa, x2 = 0.25 | 0.494
313.15 K, 100 kPa, x2 = 0.301 | 0.541
313.15 K, 100 kPa, x2 = 0.351 | 0.571
313.15 K, 100 kPa, x2 = 0.402 | 0.593
313.15 K, 100 kPa, x2 = 0.451 | 0.602
313.15 K, 100 kPa, x2 = 0.501 | 0.601
313.15 K, 100 kPa, x2 = 0.549 | 0.59
313.15 K, 100 kPa, x2 = 0.601 | 0.567
313.15 K, 100 kPa, x2 = 0.648 | 0.538
313.15 K, 100 kPa, x2 = 0.749 | 0.446
313.15 K, 100 kPa, x2 = 0.799 | 0.376
313.15 K, 100 kPa, x2 = 0.851 | 0.304
313.15 K, 100 kPa, x2 = 0.899 | 0.207
313.15 K, 100 kPa, x2 = 0.949 | 0.103
313.15 K, 1000 kPa, x2 = 0.05 | 0.134
313.15 K, 1000 kPa, x2 = 0.101 | 0.255
313.15 K, 1000 kPa, x2 = 0.151 | 0.352
313.15 K, 1000 kPa, x2 = 0.2 | 0.427
313.15 K, 1000 kPa, x2 = 0.25 | 0.49
313.15 K, 1000 kPa, x2 = 0.301 | 0.537
313.15 K, 1000 kPa, x2 = 0.351 | 0.569
313.15 K, 1000 kPa, x2 = 0.401 | 0.591
313.15 K, 1000 kPa, x2 = 0.45 | 0.601
313.15 K, 1000 kPa, x2 = 0.501 | 0.601
313.15 K, 1000 kPa, x2 = 0.549 | 0.59
313.15 K, 1000 kPa, x2 = 0.601 | 0.566
313.15 K, 1000 kPa, x2 = 0.652 | 0.536
313.15 K, 1000 kPa, x2 = 0.749 | 0.455
313.15 K, 1000 kPa, x2 = 0.799 | 0.387
313.15 K, 1000 kPa, x2 = 0.851 | 0.308
313.15 K, 1000 kPa, x2 = 0.899 | 0.225
313.15 K, 1000 kPa, x2 = 0.949 | 0.109
313.15 K, 10000 kPa, x2 = 0.05 | 0.136
313.15 K, 10000 kPa, x2 = 0.101 | 0.255
313.15 K, 10000 kPa, x2 = 0.151 | 0.352
313.15 K, 10000 kPa, x2 = 0.199 | 0.427
313.15 K, 10000 kPa, x2 = 0.249 | 0.488
313.15 K, 10000 kPa, x2 = 0.3 | 0.537
313.15 K, 10000 kPa, x2 = 0.349 | 0.569
313.15 K, 10000 kPa, x2 = 0.4 | 0.589
313.15 K, 10000 kPa, x2 = 0.449 | 0.599
313.15 K, 10000 kPa, x2 = 0.499 | 0.6
313.15 K, 10000 kPa, x2 = 0.551 | 0.588
313.15 K, 10000 kPa, x2 = 0.6 | 0.567
313.15 K, 10000 kPa, x2 = 0.65 | 0.535
313.15 K, 10000 kPa, x2 = 0.85 | 0.309
313.15 K, 10000 kPa, x2 = 0.899 | 0.222
313.15 K, 10000 kPa, x2 = 0.949 | 0.106
328.15 K, 1000 kPa, x2 = 0.05 | 0.137
328.15 K, 1000 kPa, x2 = 0.101 | 0.258
328.15 K, 1000 kPa, x2 = 0.151 | 0.356
328.15 K, 1000 kPa, x2 = 0.202 | 0.441
328.15 K, 1000 kPa, x2 = 0.252 | 0.506
328.15 K, 1000 kPa, x2 = 0.3 | 0.555
328.15 K, 1000 kPa, x2 = 0.35 | 0.592
328.15 K, 1000 kPa, x2 = 0.4 | 0.616
328.15 K, 1000 kPa, x2 = 0.45 | 0.629
328.15 K, 1000 kPa, x2 = 0.5 | 0.631
328.15 K, 1000 kPa, x2 = 0.55 | 0.622
328.15 K, 1000 kPa, x2 = 0.601 | 0.6
328.15 K, 1000 kPa, x2 = 0.651 | 0.568
328.15 K, 1000 kPa, x2 = 0.701 | 0.525
328.15 K, 1000 kPa, x2 = 0.75 | 0.471
328.15 K, 1000 kPa, x2 = 0.851 | 0.327
328.15 K, 1000 kPa, x2 = 0.899 | 0.237
328.15 K, 1000 kPa, x2 = 0.949 | 0.122

CC(C)(C)O [2-methylpropan-2-ol] + COC(=O)OC
excess molar enthalpy [kcal/mol], 1000 kPa, Flow calorimetry
Details | 298.15 K | 328.15 K
x2 = 0.05 | 0.128 | 0.124
x2 = 0.1 | 0.237 | 0.229
x2 = 0.15 | 0.329 | 0.319
x2 = 0.2 | 0.404 | 0.399
x2 = 0.25 | 0.468 | 0.462
x2 = 0.3 | 0.5164 | 0.5154
x2 = 0.35 | 0.554 | 0.5556
x2 = 0.4 | 0.5848 | 0.5831
x2 = 0.45 | 0.6031 | 0.602
x2 = 0.5 | 0.6101 | 0.6083
x2 = 0.55 | 0.605 | 0.6034
x2 = 0.6 | 0.5876 | 0.5891
x2 = 0.65 | 0.5647 | 0.5623
x2 = 0.7 | 0.5272 | 0.5257
x2 = 0.75 | 0.4738 | 0.4695
x2 = 0.8 | 0.412 | 0.411
x2 = 0.9 | 0.252 | 0.245
x2 = 0.95 | 0.134 | 0.128
